From patent publication US11433069B2, “Methods of use and pharmaceutical combinations comprising histone deacetylase inhibitors and JAK1/2 inhibitors” (University of Modena and Reggio Emilia, priority 2017, dated 2022)

How the values were obtained:
[1] = test system: 12 hematological cancer cell lines; experiment: MTT cell viability, single agents; format: cell-based; settings: panel of 12 lymphoid malignant cell lines, 24-48 hours, range over cell lines
Method: Momelotinib induces dose and time dependent manner growth inhibition in a panel of twelve lymphoid malignant cell lines. Multiple myeloma cells (U266, RPM18266), B-cell lymphoma cells (RL, WSU-NHL, Karpas-422), chronic lymphocytic leukemia cells (MEC-1), mantle cell lymphoma cells (Granta-519, Jeko-1), cutaneous T cell lymphoma cells (Hut-78), anaplastic large cell lymphoma cells (Karpas-299), and Hodgkin lymphoma cells (L-1236, L-540) were treated with a serial dosage of momelotinib (1-10 μM) for 24-48 hours.
Momelotinib and Compound A alone and in combination were tested in 12 hematological cancer cell lines: B-cell lymphomas (WSU-NHL, RL, Karpas-422), mantle cell lymphoma (Granta-519, Jeko-1), cutaneous T cell lymphoma (Hut-78), anaplastic large cell lymphoma (Karpas-299), Hodgkin lymphoma (L-1236, L-540), multiple myeloma (U266, RPM18266) and chronic lymphocytic leukemia (MEC-1). With the exception of GRANTA-519, hematological cancer cell lines were cultured in RPMI-1640 supplemented with 10% fetal bovine serum (FBS), 2 mM glutamine, and 100 U/mL penicillin and streptomycin. For Granta-519 cells, DMEM was used in place of RPMI-1640.
Cell viability was evaluated by MTT colorimetric assay following the manufacturer's instructions. […]

α-tubulin = experiment: Western blot of acetylation of α-tubulin; format: cell-based; settings: lymphoma cells; extent not further modified by momelotinib
Method: Lymphoma cell lines treated with 1 μM of momelotinib and 4 μM of citarinostat alone and in combination. […] Whole-cell lysates were subjected to western blotting using the indicated Abs. Tubulin was used to normalize protein loading. […] Whole-cell lysates were subjected to western blotting using the indicated Abs. Tubulin was used to normalize protein loading.
The combination treatment with momelotinib and Compound A leads JAK2/STAT3 pathway inactivation.

| IC50 [1] [µM] | SMILES | acetylation of α-tubulin (α-tubulin) |
| --- | --- | --- |
| 1.51 to 60 | O=C(CCCCCCNC(=O)c1cnc(N(c2ccccc2)c2ccccc2Cl)nc1)NO [Compound A, 2-((2-chlorophenyl)(phenyl)amino)-N-(7-(hydroxyamino)-7-oxoheptyl)pyrimidine-5-carboxamide] | induced the acetylation of α-tubulin |
| 1.8 to 9.6 | N#CCNC(=O)c1ccc(-c2ccnc(Nc3ccc(N4CCOCC4)cc3)n2)cc1 [Momelotinib, momelotinib, reference compound] |  |
